Activity calls are given as the source filed them. No cut-off for these calls is given here.
Test system: Mus musculus
Experiment: Antiulcerogenic activity against acidified ethanol induced-gastric lesions in Swiss mouse at 100 mg/kg, po administered 1 hr prior to acidified ethanol challenge measured after 1 hr
Assay type: functional, organism-based

## C[C@@H]1CC[C@@]2(OC1)O[C@H]1C[C@H]3[C@@H]4C[C@H](O)[C@H]5C[C@@H](O[C@@H]6O[C@H](CO)[C@H](O[C@@H]7O[C@H](CO)[C@@H](O)[C@H](O[C@@H]8O[C@H](CO)[C@@H](O[C@@H]9O[C@@H](C)[C@H](O)[C@@H](O)[C@H]9O)[C@H](O)[C@H]8O)[C@H]7O[C@@H]7O[C@H](CO)[C@@H](O)[C@H](O[C@@H]8O[C@H](CO)[C@@H](O)[C@H](O)[C@H]8O)[C@H]7O)[C@H](O)[C@H]6O)CC[C@]5(C)[C@H]4CC(=O)[C@]3(C)[C@H]1[C@@H]2C
  Activity: Active

## CO[C@]1(CC[C@@H](C)CO[C@H]2O[C@@H](CO)[C@H](O)[C@@H](O)[C@@H]2O)O[C@H]2C[C@H]3[C@@H]4CC[C@H]5C[C@@H](O[C@@H]6O[C@H](CO)[C@H](O[C@@H]7O[C@H](CO)[C@@H](O)[C@H](O[C@@H]8O[C@H](CO)[C@@H](O)[C@H](O[C@@H]9O[C@H](CO)[C@@H](O)[C@H](O)[C@H]9O)[C@H]8O)[C@H]7O[C@@H]7OC[C@@H](O[C@@H]8O[C@@H](C)[C@H](O)[C@@H](O)[C@H]8O)[C@H](O)[C@H]7O)[C@H](O)[C@H]6O)CC[C@]5(C)[C@H]4CC[C@]3(C)[C@H]2[C@@H]1C
  Activity: Active
